Reference: patent US11123335B2, “Method for preventing lung diseases in smokers and non-smokers using antihypertensive drug” (SEOUL NATIONAL UNIVERSITY R & DB FOUNDATION, priority 2015, dated 2021)

What was measured:
IGF-1R = test: NE-mediated IGF-1R activation in lung epithelial cells; assay type: cell-based, human
Experimental: Cells were washed twice with ice-cold PBS, and then lysed with a modified RIPA buffer [50 mM Tris-HCl (pH 7.4), 150 mM NaCl, 1 mM EDTA, 0.25% sodium deoxycholate, 1% Triton X-100, a protease inhibitor cocktail, 100 mM NaF, 1 mM Na3VO4]. Lysates were centrifuged at 13,000 rpm for 15 to 20 minutes to harvest supernatants, and then the collected proteins were quantified using the BCA method. Equivalent amounts of the proteins were subjected to electrophoresis using 8-15% SDS-PAGE, and then transferred to a PVDF membrane. The membrane was washed with TBST (0.01% Tween-20-containing Tris-buffered saline), and blocked in a blocking buffer (diluted in TBST to contain 5% skim milk) at room temperature for 1 hour. The membrane was incubated with primary antibodies diluted in 3% BSA-containing TBST at 4° C. for 12 hours, and washed with TBST for over 1 hour. The membrane was incubated with secondary antibodies diluted in TBST containing 3% skim milk at room temperature for 1 to 2 hours, and washed with TBST for over 1 hour. The membrane was reacted in an ECL solution, and band visualization was carried out by exposure to an X-ray film.

IGF2 = test: NE-mediated IGF2 secretion in lung epithelial cells; assay type: cell-based, human
Experimental: ELISA for IGF1, IGF2 and NE were performed using commercially available ELISA kits (R&D Systems, DSL or Abnova) according to the manufacturer's instruction.

mice = test: NE (stress hormone) lung carcinogenesis model with urethane; assay type: in vivo, mouse; settings: continuous NE exposure by micro-osmotic pump, 12 weeks, urethane 1 g/kg
Experimental: To identify the carcinogenesis promotion by a stress hormone NE, NE (50.1 mM) or vehicle PBS was injected into micro-osmotic pumps (Alzet), and then the pumps were implanted into the backs of mice. Six weeks later, the existing pumps were removed, NE or PBS-injected new pumps were implanted into the mice, and then the mice were continuously exposed (daily exposure at a dose of 1 μmol per 100 g mouse) to NE for a total of 12 weeks. To stimulate tumorigenesis, three days after the pump implantation, urethane was administered at a dose of 1 g/kg.
For non-invasive observation of tumors before autopsy, MMPSense 680 probes were injected, and images were obtained using IVIS Spectrum microCT (PerkinElmer). After autopsy of the mice, lungs were extracted, and produced tumors were counted and embedded in paraffin to form paraffin blocks. Four or more tissue sections were prepared at regular intervals and stained by H&E staining, and then numbers and sizes of the tumors were measured to calculate volumes of the tumors. The tumor volume was calculated according to (minor axis)^2×major axis×0.5.

lung epithelial cells = test: Transformation of lung epithelial cells by stress hormones; assay type: cell-based, human; settings: treatment with the stress hormone alone
Experimental: Cells (2-3×10^3 cells) were seeded into 96-well plates, treated with a test drug diluted with a medium, and then incubated for 3 days. After incubation, the cells were treated with an MTT solution to have a final concentration of 200-500 μg/ml and incubated for 2 to 4 hours. After discarding the medium, produced formazan was dissolved in DMSO, and then the absorbance at 570 nm was measured. Alternatively, cells were seeded into 12- or 24-well plates, collected after a predetermined time after treatment with a test drug, and then counted using a hemocytometer. 100 to 300 cells were seeded into 6- or 12-well plates and then treated with NNK or NNK and a test drug for 2 to 3 weeks. After 2 to 3 weeks, Colony formation was observed and the colonies were counted after stained staining with crystal violet. Before the experiment, low-melting agar (final concentration of agar: 1%) was diluted with a medium, and then 1 ml of the resulting solution was added and solidified in each 24-well plate, resulting in bottom agar. 2,000 to 5,000 cells were mixed with the low melting agar (final concentration of agar: 0.35-0.4%), 500 μl of the resulting mixture was added onto each bottom agar. After solidification of the agar, the cells were treated with NNK or a test drug, which was diluted with a medium. After 2 to 4 weeks after treatment, colonies were stained with an MTT solution, observed, and then counted. Lung epithelial cells at 90 to 95% confluency were treated with a carcinogen diluted with a growth factor-free medium, or a carcinogen and a test drug. After 2 to 3 weeks, foci formation was observed.

FVB mouse = test: Emphysema-induced mouse model (NNK/B[a]P); assay type: in vivo; settings: FVB mice, amlodipine 0.8 mg/kg oral 6 times a week, 5 months
Experimental: Cells were plated onto coverslips, pretreated with a drug and then treated with NNK or NE. OCT blocks were sliced to have a thickness of 4 μm and then placed onto silane-coated slides. Cells or tissue was washed with PBS, and fixed with 4% paraformaldehyde at room temperature for 30 minutes. Afterward, the cells were permeabilized with 0.1% Triton X-100, and blocked in a blocking solution. After treatment with primary antibodies at 4° C. for over 12 hours, the cells were washed with PBS several times, and then treated with fluorescence-binding secondary antibodies. Subsequently, after washing with PBS several times, the slides were mounted with a DAPI-containing mounting solution, and images were captured using a confocal microscope.
Paraffin blocks were sliced to have a thickness of 4 μm, placed onto silane-coated slides, and then dried. […]
As a method for detecting the activation degree of a protease, a matrix metalloproteinase (MMP), known as the main factor causing COPD in lung tissue, a proper amount of a reaction buffer containing fluorescein isothiocyanate (FITC)-coupled DQ gelatin was added to a slide, and reacted at 37° C. in a dark room for 12 hours. The activated MMP decomposed the DQ gelatin, resulting in fluorescence from FITC which had been inhibited, and thus the fluorescence intensity of FITC was directly proportional to MMP activity. […]

[1] = NE-treated lung epithelial cells

Compound	IGF-1R phosphorylation (IGF-1R; BEAS-2B, HBE/p53i, NHBE, HB56B, NE time- or concentration-dependent)	IGF2 secretion (IGF2; lung epithelial cells treated with NE)	urethane-initiated lung carcinogenesis (mice)	transformation of lung epithelial cells (viability, colony formation, foci formation) (lung epithelial cells)	NE-mediated IGF-1R activation (IGF-1R; [1])	NE-mediated IGF2 secretion (IGF2; [1])	lung tissue collapse (morphology, H&E) (FVB mouse)
NC[C@H](O)c1ccc(O)c(O)c1 [NE, norepinephrine]	increased	increased	significantly increased	significantly enhanced	–	–	–
amlodipine	–	–	–	–	inhibited	inhibited	inhibited
